Reference: patent US10143719B2, “Inhibitors of valosin-containing protein and methods of use” (CASE WESTERN RESERVE UNIVERSITY, priority 2015, dated 2018)
Residues, ends and D or L forms follow the SMILES beside them. *: point of attachment. Cbz = O=C(OCc1ccccc1)*

System: Htt or mtHtt
Assay: Htt/mtHtt protein levels after proteasome or VCP inhibitor
Assay type: cell-based, mouse
Settings: HdhQ or HdhQ111 cells
From the text: VCP plays a central role in protein degradation by binding to its substrates.

## CC1(C)C(N(O)C(=O)Nc2ccc(Cl)cc2)N(c2ccc(Cl)cc2)C(=O)N1CC(=O)N/N=C/C=C/c1ccc([N+](=O)[O-])o1 (centres unmarked) [Eeyarestatin I]
  Htt or mtHtt protein levels: did not affect Htt or mtHtt protein levels

## CC(C)C[C@@H](C=O)NC(=O)[C@H](CC(C)C)NC(=O)[C@H](CC(C)C)NC(=O)OCc1ccccc1 [MG132] (Cbz-Leu-Leu-Leu-aldehyde)
  Htt or mtHtt protein levels: did not affect Htt or mtHtt protein levels
